Measured values taken from US8076311B2, “Compositions and methods for modulating the immune system” (priority 2006, dated 2011).
Where two headings read alike, the source gives them in different places.

How the values were obtained:
T lymphocyte [1] = experiment: Patient case study: T lymphocyte competence (proliferation in response to PHA); assay type: in vivo, human
Protocol: (§1) The patient was treated with a Formula 2 compound and blood cell parameters were monitored. The sample size for this experiment was 1, consisting of subject 1. Subject 1 is an immune comprised patient with multiple recurrent infectious bouts requiring hospitalization while in a nearly moribund condition began treatment with the experimental drug Isopentyl adenosine (IPA).
(§2) The subject initially received IPA (see FIGS. 1 and 2). T and B lymphocyte competence as measured by the ability of these cells to proliferate in response to specific stimulating mitogens (PHA for T cells and PWM for B cells) which was monitored on a weekly basis until death. As shown in FIGS. 1 and 2 respectively the subject's T and B lymphocyte competence on was well below normal.

immune comprised patient = experiment: Patient case study: clinical status; assay type: in vivo, human
Protocol: The patient was treated with a Formula 2 compound and blood cell parameters were monitored. The sample size for this experiment was 1, consisting of subject 1. Subject 1 is an immune comprised patient with multiple recurrent infectious bouts requiring hospitalization while in a nearly moribund condition began treatment with the experimental drug Isopentyl adenosine (IPA). The subject had been hospitalized with avert life-threatening infections. The subject's total white blood cell counts were in the range of 2200-4900 for the three month period preceding hospitalization. […] The patient was hospitalized from depression, exhaustion, bronchial infection, severe diarrhea, severe weight loss and complete loss of appetite and spiked fever. The patient's weight was 98 pounds.

B lymphocyte = experiment: Patient case study: B lymphocyte competence (proliferation in response to PWM); assay type: in vivo, human
Protocol: as §1, §2

T lymphocyte [2] = conditions: patients receiving immune stimulating agents; cited from earlier work
bone marrow cells = conditions: after the 15th day of post-irradiation
Protocol: (§3) Thirty six animals were divided into four groups of nine animals each. […] Group 4 was treated as normal animals without any treatment. On days 5, 10 and 15 after irradiation (750) rads three animals from each group was sacrificed. Blood was collected to heparinized tubes, and plasma was removed and following parameters were assayed in the blood. Activity of the enzyme SOD was measured by NBT reduction method of McCord and Fridovich. CAT activity was estimated by the method of Aebi by measuring the rate of decomposition of hydrogen peroxide at 240 nm. Level of GSH was assayed by the method of Moron et al based on the reaction with DTBN. Assay of GPX followed the method of Hafeman based on the degradation of H2O2 in the presence of GSH. The method of Habig was followed to assay the activity of GST based on the rate of increase in the conjugate formation between GSH and CDNB.
The femurs of three above animals were dissected out and bone marrow cells were flushed into phosphate buffered saline (pH 7.4) containing 2% foetal calf serum. The cells were washed and bone marrow viability was determined by the method of Sredni. The results were expressed as number of live bone marrow cells ×10(6)/femur.

irradiated animals = experiment: Effect of oltipraz on haematological parameters and body weight of irradiated animals; conditions: for Body weight on day 6: 750 rads, p>0.05
GPX = conditions: group III; 15th day after irradiation; p<−0.001
Protocol: as §3

GST = conditions: group III; 15th day; p<−0.01
Protocol: as §3

SOD = conditions: continuous administration; maximum value on the 15th day after irradiation
Protocol: as §3

GSH = conditions: oltipraz continuously administered group; 15th day; p<0.001
Protocol: as §3

CAT = conditions: continuous administration; maximum on tenth day after irradiation
Protocol: as §3

lipid peroxidation = conditions: group III; day 15; liver; p<−0.001
Protocol: The liver of the sacrificed animals were excised quickly washed in ice-cold saline and kept at −70° C. till the day of analysis. On the day of analysis 25% homogenate was pre-pared in tris-HCl buffer (0.1 M, pH 7.4). The homogenate was centrifuged at 12000 rpm for 30 minutes and supernatant was used to determine the tissue lipid peroxide levels (LPO) using the TBA method of Okhawa et al.

[3] = resumed for one week with one-half the recommended dosage
[4] = within 7 days of drug therapy initiation
[5] = within a month of resuming therapy at recommended dose levels
[6] = first period of constant oral doses of IPA

Compound: CC(C)=CCNc1ncnc2c1ncn2[C@@H]1O[C@H](CO)[C@@H](O)[C@H]1O [IPA, N6-(Δ2-isopentenyl) adenosine]
- T lymphocyte competence (T lymphocyte [1]; dosage greatly (>3×) increased): depression suggesting immunotoxicity
- T lymphocyte competence (T lymphocyte [1]; [3]): spiked dramatically to above the lower limit of the normal range
- Time to major rapid recovery of T lymphocyte competence after initiation of therapy (T lymphocyte [1]; subject 1, oral IPA): less than 7 days
- Level of T lymphocyte competence (T lymphocyte [1]; [4]): above the lower limits-of the normal donor's reactivity
- T lymphocyte competence (T lymphocyte [1]; [5]): well within the range of normal donor reactivity
- T lymphocyte competence (T lymphocyte [1]; within two weeks of resuming therapy at recommended dose levels): nearly within the normal range
- Fever and diarrhea (immune comprised patient; [6]): completely subsided
- Weight gain (immune comprised patient; [6]): 15 pound
- Life after initiation of therapy (immune comprised patient; patient terminally moribund at start): 5 months
- B lymphocyte activity (B lymphocyte; [3]): slight rise
- Time to major rapid recovery of B lymphocyte competence after initiation of therapy (B lymphocyte; subject 1, oral IPA): less than 7 days
- Level of B lymphocyte competence (B lymphocyte; [4]): above the lower limits-of the normal donor's reactivity
- B lymphocyte competence (B lymphocyte; [5]): somewhat below lower normal limits

Compound: c1ccc([C@H]2CN3CCSC3=N2)cc1 [Levamisole]
- Immune recovery capacity compared with IPA (T lymphocyte [2]): slower and less dramatic

Compound: Cc1c(-c2cnccn2)ssc1=S [oltipraz]
- Bone marrow viability (bone marrow cells; group II (oltipraz pre treated)): 5.82 ×10^6 cells/femur
- Bone marrow viability (bone marrow cells; group III (oltipraz continuously administered)): 14.32 ×10^6 cells/femur
- Body weight on day 6 (irradiated animals; group II: oltipraz 50 mgs/Kg ten days prior to irradiation): 21.02±4.14
- WBC at later days after irradiation (irradiated animals; group III (oltipraz continuously administered) compared with group I (radiation alone) and group II): significantly elevated WBC
- Body weight on day 6 (irradiated animals; group III: oltipraz 50 mgs/Kg ten days prior to and fifteen days after irradiation): 21.10±2.51
- Differential count (irradiated animals; irradiated mice, oltipraz groups): did not show any significant variation
- Total leukocyte count (irradiated animals; oltipraz 50 mgs/Kg, irradiated mice, versus radiation alone): increase the count
- Hemoglobin level (irradiated animals; oltipraz continuously administered group, day 6): 12.42±2.76
- GPX activity (GPX): 1927.87±136.06 U/L of haemolysate
- GST activity (GST): 2.38±0.25 nano-moles of CDNB-GSH conjugate formed
- SOD activity (SOD): enhanced
- Levels of GSH compared with radiation alone treated group (GSH): increased almost three times
- CAT activity (CAT): enhanced
- Lipid peroxidation (lipid peroxidation): 2.12±0.21 nano-moles of MDA formed/mg of protein
